Experimental findings from patent publication US9850256B2, “Antibacterial basic biaromatic derivatives with aminoalkoxy substitution” (priority 2014, dated 2017) are described below.

Common to all, as to assay: Bacterial growth minimal inhibitory concentration (microdilution, cation-adjusted Mueller-Hinton Broth)
One test deals with E. coli ATCC25922. The class given is cell-based. As to conditions: Escherichia coli, ATCC25922; quinolone-sensitive strain. An outline of the steps:
(§1)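 Broth microdilution in cation-adjusted Mueller-Hinton Broth per CLSI M7-A7; MICs in mg/L. S. aureus A798 is methicillin- and quinolone-resistant, K. pneumoniae T6474 penicillin-, cephalosporin- and quinolone-resistant; E. coli ATCC25922 and P. aeruginosa ATCC 27853 are quinolone-sensitive.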

In a further test the test system is K. pneumoniae T6474. The class given is cell-based, Klebsiella pneumoniae. The settings on record: Klebsiella pneumoniae, T6474; multiply-resistant strain (penicillin-, cephalosporin- and quinolone-resistant). An outline of the steps: as §1
The next test deals with S. aureus A798. The class given is cell-based, Staphylococcus aureus. The settings on record: Staphylococcus aureus, A798; multiply-resistant strain (methicillin- and quinolone-resistant). In a few lines:
as §1

In a further test the test system is P. aeruginosa ATCC 27853. The class given is cell-based, Pseudomonas aeruginosa. The settings on record: Pseudomonas aeruginosa, ATCC27853; quinolone-sensitive strain. An outline of the steps:
as §1

Values after ≈ are worked out from the molar mass of the structure shown.

With `O=C1COc2ccc(N3C[C@H](CCNCc4cccc(-c5cccc(OC[C@H]6CCN6)n5)c4)OC3=O)nc2N1` [Example $124, 6-[(S)-5-(2-{3-[6-((R)-1-azetidin-2-ylmethoxy)-pyridin-2-yl]-benzylamino}-ethyl)-2-oxo-oxazolidin-3-yl]-4H-pyrido[3,2-b][1,4]oxazin-3-one], the MIC with E. coli ATCC25922 amounted to 1 µg/mL (≈ 1.88 µM); in the test on K. pneumoniae T6474 it was 2 µg/mL (≈ 3.77 µM); against S. aureus A798, 1 µg/mL (≈ 1.88 µM); with P. aeruginosa ATCC 27853 it was 0.5 µg/mL (≈ 0.942 µM).

Take `CN1CC[C@@H]1COc1cccc(-c2cccc(CNCC[C@H]3CN(c4ccc5c(n4)NC(=O)CO5)C(=O)O3)c2)n1` [Example $125, 6-[(S)-5-(2-{3-[6-((R)-1-methyl-azetidin-2-ylmethoxy)-pyridin-2-yl]-benzylamino}-ethyl)-2-oxo-oxazolidin-3-yl]-4H-pyrido[3,2-b][1,4]oxazin-3-one]: the MIC in the test with E. coli ATCC25922 stood at 1 µg/mL (≈ 1.84 µM); in the test with K. pneumoniae T6474, 2 µg/mL (≈ 3.67 µM); with S. aureus A798, 0.5 µg/mL (≈ 0.918 µM); with P. aeruginosa ATCC 27853, 4 µg/mL (≈ 7.34 µM).

Consider `CN1CCC(Oc2cccc(-c3cccc(CNCC[C@H]4CN(c5ccc6c(n5)NC(=O)CO6)C(=O)O4)c3)n2)CC1` [Example $127, 6-[(S)-5-(2-{3-[6-(1-methyl-piperidin-4-yloxy)-pyridin-2-yl]-benzylamino}-ethyl)-2-oxo-oxazolidin-3-yl]-4H-pyrido[3,2-b][1,4]oxazin-3-one], for which the MIC against E. coli ATCC25922 turned out to be 2 µg/mL (≈ 3.58 µM); against K. pneumoniae T6474 it was 8 µg/mL (≈ 14.3 µM); with S. aureus A798, 1 µg/mL (≈ 1.79 µM); in the test on P. aeruginosa ATCC 27853, 4 µg/mL (≈ 7.16 µM).

With `CN1CC[C@H](Oc2cccc(-c3ccnc(CNCC[C@H]4CN(c5ccc6c(n5)NC(=O)CO6)C(=O)O4)c3)n2)C1` [Example $128, 6-[(S)-5-(2-{[6-((S)-1-methyl-pyrrolidin-3-yloxy)-[2,4′]bipyridinyl-2′-ylmethyl]-amino}-ethyl)-2-oxo-oxazolidin-3-yl]-4H-pyrido[3,2-b][1,4]oxazin-3-one], the MIC against E. coli ATCC25922 amounted to 0.5 µg/mL (≈ 0.916 µM); in the test on K. pneumoniae T6474, 1 µg/mL (≈ 1.83 µM); against S. aureus A798 it was 0.25 µg/mL (≈ 0.458 µM); against P. aeruginosa ATCC 27853 it was 1 µg/mL (≈ 1.83 µM).

For the compound `CN1CC[C@H](Oc2cccc(-c3cccc(CNCC[C@H]4CN(c5ccc6c(n5)NC(=O)CO6)C(=O)O4)n3)n2)C1` [Example $129, 6-[(S)-5-(2-{[6′-((S)-1-methyl-pyrrolidin-3-yloxy)-[2,2′]bipyridinyl-6-ylmethyl]-amino}-ethyl)-2-oxo-oxazolidin-3-yl]-4H-pyrido[3,2-b][1,4]oxazin-3-one], the MIC in the test on E. coli ATCC25922 was found to be 4 µg/mL (≈ 7.33 µM); with K. pneumoniae T6474, 4 µg/mL (≈ 7.33 µM); against S. aureus A798, 2 µg/mL (≈ 3.67 µM); with P. aeruginosa ATCC 27853 it was 8 µg/mL (≈ 14.7 µM).

`CN1CCC[C@H]1COc1cccc(-c2cccc(CNCC[C@H]3CN(c4ccc5c(n4)NC(=O)CO5)C(=O)O3)c2)n1` [Example $130, 6-[(S)-5-(2-{3-[6-((S)-1-methyl-pyrrolidin-2-ylmethoxy)-pyridin-2-yl]-benzylamino}-ethyl)-2-oxo-oxazolidin-3-yl]-4H-pyrido[3,2-b][1,4]oxazin-3-one]: the MIC with E. coli ATCC25922 amounted to 1 µg/mL (≈ 1.79 µM); with K. pneumoniae T6474, 2 µg/mL (≈ 3.58 µM); against S. aureus A798, 0.25 µg/mL (≈ 0.448 µM); in the test on P. aeruginosa ATCC 27853, 4 µg/mL (≈ 7.16 µM).

As for `C[C@H]1C[C@H](Oc2cccc(-c3cccc(CNCC[C@H]4CN(c5ccc6c(n5)NC(=O)CO6)C(=O)O4)c3)n2)CN1` [Example $131, 6-[(S)-5-(2-{3-[6-((3S,5S)-5-methyl-pyrrolidin-3-yloxy)-pyridin-2-yl]-benzylamino}-ethyl)-2-oxo-oxazolidin-3-yl]-4H-pyrido[3,2-b][1,4]oxazin-3-one], the MIC in the test on E. coli ATCC25922 came to 0.5 µg/mL (≈ 0.918 µM); in the test on K. pneumoniae T6474, 1 µg/mL (≈ 1.84 µM); against S. aureus A798 it was 0.25 µg/mL (≈ 0.459 µM); against P. aeruginosa ATCC 27853 it was 0.5 µg/mL (≈ 0.918 µM).

Regarding `O=C1COc2ccc(N3C[C@H](CCNCc4cccc(-c5cccc(OC[C@H]6CCCN6)n5)c4)OC3=O)nc2N1` [Example $132, 6-[(S)-2-oxo-5-(2-{3-[6-((R)-1-pyrrolidin-2-ylmethoxy)-pyridin-2-yl]-benzylamino}-ethyl)-oxazolidin-3-yl]-4H-pyrido[3,2-b][1,4]oxazin-3-one], the MIC against E. coli ATCC25922 is 0.5 µg/mL (≈ 0.918 µM); in the test on K. pneumoniae T6474, 1 µg/mL (≈ 1.84 µM); against S. aureus A798, 0.25 µg/mL (≈ 0.459 µM); with P. aeruginosa ATCC 27853 it was 0.5 µg/mL (≈ 0.918 µM).

For `O=C1COc2ccc(N3C[C@H](CCNCc4cccc(-c5cccc(OC[C@@H]6CCCN6)n5)c4)OC3=O)nc2N1` [Example $133, 6-[(S)-2-oxo-5-(2-{3-[6-((S)-1-pyrrolidin-2-ylmethoxy)-pyridin-2-yl]-benzylamino}-ethyl)-oxazolidin-3-yl]-4H-pyrido[3,2-b][1,4]oxazin-3-one], the MIC amounted to 1 µg/mL (≈ 1.84 µM) against E. coli ATCC25922, 2 µg/mL (≈ 3.67 µM) with K. pneumoniae T6474, 1 µg/mL (≈ 1.84 µM) in the test on S. aureus A798 and 0.5 µg/mL (≈ 0.918 µM) in the test with P. aeruginosa ATCC 27853.

`COc1cc(O[C@H]2CCN(C)C2)nc(-c2cccc(CNCC[C@H]3CN(c4ccc5c(n4)NC(=O)CO5)C(=O)O3)c2)c1` [Example $136, 6-[(S)-5-(2-{3-[4-methoxy-6-((S)-1-methyl-pyrrolidin-3-yloxy)-pyridin-2-yl]-benzylamino}-ethyl)-2-oxo-oxazolidin-3-yl]-4H-pyrido[3,2-b][1,4]oxazin-3-one]: the MIC in the test on E. coli ATCC25922 amounted to 1 µg/mL (≈ 1.74 µM); against K. pneumoniae T6474 it was 2 µg/mL (≈ 3.48 µM); in the test with S. aureus A798 it was 0.25 µg/mL (≈ 0.435 µM); against P. aeruginosa ATCC 27853 it was 2 µg/mL (≈ 3.48 µM).

Turning to `CN1CC[C@H](Oc2ccnc(-c3cccc(CNCC[C@H]4CN(c5ccc6c(n5)NC(=O)CO6)C(=O)O4)c3)n2)C1` [Example $137, 6-[(S)-5-(2-{3-[4-((S)-1-methyl-pyrrolidin-3-yloxy)-pyrimidin-2-yl]-benzylamino}-ethyl)-2-oxo-oxazolidin-3-yl]-4H-pyrido[3,2-b][1,4]oxazin-3-one], the MIC in the test with E. coli ATCC25922 was found to be 1 µg/mL (≈ 1.83 µM); in the test with K. pneumoniae T6474 it was 1 µg/mL (≈ 1.83 µM); against S. aureus A798 it was 0.5 µg/mL (≈ 0.916 µM); in the test with P. aeruginosa ATCC 27853 it was 1 µg/mL (≈ 1.83 µM).

As to `CN1CC[C@H](Oc2cccc(-c3cncc(CNCC[C@H]4CN(c5ccc6c(n5)NC(=O)CO6)C(=O)O4)c3)n2)C1` [Example $138, 6-[(S)-5-(2-{[6-((S)-1-methyl-pyrrolidin-3-yloxy)-[2,3′]bipyridinyl-5′-ylmethyl]-amino}-ethyl)-2-oxo-oxazolidin-3-yl]-4H-pyrido[3,2-b][1,4]oxazin-3-one], the MIC is 1 µg/mL (≈ 1.83 µM) against E. coli ATCC25922, 2 µg/mL (≈ 3.67 µM) with K. pneumoniae T6474, 2 µg/mL (≈ 3.67 µM) against S. aureus A798 and 2 µg/mL (≈ 3.67 µM) in the test with P. aeruginosa ATCC 27853.

On to `CN1CC[C@H](Oc2cccc(-c3cc(CNCC[C@H]4CN(c5ccc6c(n5)NC(=O)CO6)C(=O)O4)ccn3)n2)C1` [Example $139, 6-[(S)-5-(2-{[6′-((S)-1-methyl-pyrrolidin-3-yloxy)-[2,2′]bipyridinyl-4-ylmethyl]-amino}-ethyl)-2-oxo-oxazolidin-3-yl]-4H-pyrido[3,2-b][1,4]oxazin-3-one], for which the MIC is 1 µg/mL (≈ 1.83 µM) in the test with E. coli ATCC25922, 1 µg/mL (≈ 1.83 µM) in the test on K. pneumoniae T6474, 0.25 µg/mL (≈ 0.458 µM) against S. aureus A798 and 2 µg/mL (≈ 3.67 µM) against P. aeruginosa ATCC 27853.

`CN1CC[C@@H](COc2cccc(-c3cccc(CNCC[C@H]4CN(c5ccc6c(n5)NC(=O)CO6)C(=O)O4)c3)n2)C1` [Example $140, 6-[(S)-5-(2-{3-[6-((R)-1-methyl-pyrrolidin-3-ylmethoxy)-pyridin-2-yl]-benzylamino}-ethyl)-2-oxo-oxazolidin-3-yl]-4H-pyrido[3,2-b][1,4]oxazin-3-one]: the MIC against E. coli ATCC25922 was 2 µg/mL (≈ 3.58 µM); with K. pneumoniae T6474 it was 2 µg/mL (≈ 3.58 µM); against S. aureus A798, 0.5 µg/mL (≈ 0.895 µM); in the test on P. aeruginosa ATCC 27853 it was 2 µg/mL (≈ 3.58 µM).
